Laboratory results as given in patent publication USRE33699E, “Growth hormone-releasing factor analogs” (International Minerals & Chemical Corp., priority 1990, dated 1991).
Square brackets hold non-standard residues; d marks the D form. Peptide text beside a SMILES is read from it. Nle = CCCC[C@H](N)C(=O)O

Test system: rat pituitary cells
Assay: Bioassay of hGRF analogs: stimulation of growth hormone release in rat pituitary cells in tissue culture
Type: cell-based
Settings: for Dose Needed to Release 2.01 μg/ml of GH: 2.01 μg/ml = GH released at the ED50 of hGRF; for Dose Needed to Release 2.01 μg/ml of GH / Relative Maximum Activity (% of hGRF): from ALLFIT curves; for Potency: (ED50 of hGRF)/(Dose required to give same response as ED50 of hGRF)
Source text: The assay for biological activity, which is based on the ability to stimulate release of growth hormone in rat pituitary cells in tissue culture, has been described in detail (Culler, M. D.; Kenjo, T.: Obara, N.; Arimuar, A., Stimulation of cAMP. Accumulation by Human Pancreatic GH-Releasing Factor(1-44). Am. J. Physiol. 1984, 247 (Endocrinol.Metab. 10). E609-E615.
ALLFIT, the 4-parameter logistic curve fitting program available from the Biomedical Computer Technology Information Center, Vanderbilt Medical Center, Nashville Tenn., was used to determine ED50 and maximal stimulated values from the data. In several instances, the amount of GH released reached a maximum value and decreased with further increasing doses of the hGRF analogs. To simplify the data analysis, these values were not used in the calculations. The calculated maximal responses, the doses of the analog required to release the amount of GH released at the ED50 of the standard (hGRF) and the potencies of the analogs relative to hGRF, are given in Table 2. Generally all novel analogs were fully active and were able to stimulate the release of growth hormone with maximal values of GH release being within 80% of the value for natural hGRF.

SMILES	Dose Needed to Release 2.01 μg/ml of GH	Potency	Relative Maximum Activity (% of hGRF)	Potency (Asp^8, Nle^27 ])	Potency (Asp^8, Asn^25, Nle^27 ])
CCCC[C@H](NC(=O)[C@@H](NC(=O)[C@H](CC(N)=O)NC(=O)[C@H](CCC(N)=O)NC(=O)[C@H](CC(C)C)NC(=O)[C@H](CC(C)C)NC(=O)[C@H](CCCCN)NC(=O)[C@H](CCCNC(=N)N)NC(=O)[C@H](C)NC(=O)[C@H](CO)NC(=O)[C@H](CC(C)C)NC(=O)[C@H](CCC(N)=O)NC(=O)CNC(=O)[C@H](CC(C)C)NC(=O)[C@@H](NC(=O)[C@H](CCCCN)NC(=O)[C@H](CCCNC(=N)N)NC(=O)[C@H](Cc1ccc(O)cc1)NC(=O)[C@H](CO)NC(=O)[C@H](CC(N)=O)NC(=O)[C@@H](NC(=O)[C@H](Cc1ccccc1)NC(=O)[C@@H](NC(=O)[C@H](C)NC(=O)[C@H](CC(N)=O)NC(=O)[C@H](C)NC(=O)[C@@H](N)Cc1ccc(O)cc1)[C@@H](C)CC)[C@@H](C)O)C(C)C)[C@@H](C)CC)C(=O)N[C@@H](CO)C(=O)N[C@@H](CCCNC(=N)N)C(=O)N[C@@H](CCC(N)=O)C(=O)N[C@@H](CCC(N)=O)C(N)=O [[Asn^3, Asn^25, Nle^27]-hGRF(1-31)--NH2, [Asn^3,Asn^25,Nle^27]-hGRF (1-31)--NH2] (H-YANAIFTNSYRKVLGQLSARKLLQNI[Nle]SRQQ-NH2)	1.54 nM	21%	101 % of hGRF		
CCCC[C@H](NC(=O)[C@@H](NC(=O)[C@H](CC(=O)O)NC(=O)[C@H](CCC(N)=O)NC(=O)[C@H](CC(C)C)NC(=O)[C@H](CC(C)C)NC(=O)[C@H](CCCCN)NC(=O)[C@H](CCCNC(=N)N)NC(=O)[C@H](C)NC(=O)[C@H](CO)NC(=O)[C@H](CC(C)C)NC(=O)[C@H](CCC(N)=O)NC(=O)CNC(=O)[C@H](CC(C)C)NC(=O)[C@@H](NC(=O)[C@H](CCCCN)NC(=O)[C@H](CCCNC(=N)N)NC(=O)[C@H](Cc1ccc(O)cc1)NC(=O)[C@H](CO)NC(=O)[C@H](CC(=O)O)NC(=O)[C@@H](NC(=O)[C@H](Cc1ccccc1)NC(=O)[C@@H](NC(=O)[C@H](C)NC(=O)[C@H](CC(N)=O)NC(=O)[C@H](C)NC(=O)[C@@H](N)Cc1ccc(O)cc1)[C@@H](C)CC)[C@@H](C)O)C(C)C)[C@@H](C)CC)C(=O)N[C@@H](CO)C(=O)N[C@@H](CCCNC(=N)N)C(=O)N[C@@H](CCC(N)=O)C(=O)N[C@@H](CCC(N)=O)C(N)=O [[Asn^3, Asp^8, Nle^27]-hGRF(1-31)--NH2, [Asn^3,Asp^8,Nle^27]-hGRF(1-31)--NH2] (H-YANAIFTDSYRKVLGQLSARKLLQDI[Nle]SRQQ-NH2)	6.74 nM	3%	107 % of hGRF	5%	
CCCC[C@H](NC(=O)[C@@H](NC(=O)[C@H](CC(=O)O)NC(=O)[C@H](CCC(N)=O)NC(=O)[C@H](CC(C)C)NC(=O)[C@H](CC(C)C)NC(=O)[C@H](CCCCN)NC(=O)[C@H](CCCNC(=N)N)NC(=O)[C@H](C)NC(=O)[C@H](CO)NC(=O)[C@H](CC(C)C)NC(=O)[C@H](CCC(N)=O)NC(=O)CNC(=O)[C@H](CC(C)C)NC(=O)[C@@H](NC(=O)[C@H](CCCCN)NC(=O)[C@H](CCCNC(=N)N)NC(=O)[C@H](Cc1ccc(O)cc1)NC(=O)[C@H](CO)NC(=O)[C@H](CC(N)=O)NC(=O)[C@@H](NC(=O)[C@H](Cc1ccccc1)NC(=O)[C@@H](NC(=O)[C@H](C)NC(=O)[C@H](CC(N)=O)NC(=O)[C@H](C)NC(=O)[C@@H](N)Cc1ccc(O)cc1)[C@@H](C)CC)[C@@H](C)O)C(C)C)[C@@H](C)CC)C(=O)N[C@@H](CO)C(=O)N[C@@H](CCCNC(=N)N)C(=O)N[C@@H](CCC(N)=O)C(=O)N[C@@H](CCC(N)=O)C(N)=O [[Asn^3, Nle^27]-hGRF(1-31)--NH2] (H-YANAIFTNSYRKVLGQLSARKLLQDI[Nle]SRQQ-NH2)	0.58 nM	55%	93 % of hGRF		
CCCC[C@H](NC(=O)[C@@H](NC(=O)[C@H](CC(N)=O)NC(=O)[C@H](CCC(N)=O)NC(=O)[C@H](CC(C)C)NC(=O)[C@H](CC(C)C)NC(=O)[C@H](CCCCN)NC(=O)[C@H](CCCNC(=N)N)NC(=O)[C@H](C)NC(=O)[C@H](CO)NC(=O)[C@H](CC(C)C)NC(=O)[C@H](CCC(N)=O)NC(=O)CNC(=O)[C@H](CC(C)C)NC(=O)[C@@H](NC(=O)[C@H](CCCCN)NC(=O)[C@H](CCCNC(=N)N)NC(=O)[C@H](Cc1ccc(O)cc1)NC(=O)[C@H](CO)NC(=O)[C@H](CC(=O)O)NC(=O)[C@@H](NC(=O)[C@H](Cc1ccccc1)NC(=O)[C@@H](NC(=O)[C@H](C)NC(=O)[C@H](CC(N)=O)NC(=O)[C@H](C)NC(=O)[C@@H](N)Cc1ccc(O)cc1)[C@@H](C)CC)[C@@H](C)O)C(C)C)[C@@H](C)CC)C(=O)N[C@@H](CO)C(=O)N[C@@H](CCCNC(=N)N)C(=O)N[C@@H](CCC(N)=O)C(=O)N[C@@H](CCC(N)=O)C(N)=O [[Asn^3,Asp^8,Asn^25,Nle^27]-hGRF(1-31)--NH2] (H-YANAIFTDSYRKVLGQLSARKLLQNI[Nle]SRQQ-NH2)	12.05 nM	5%	94 % of hGRF		3%
CCCC[C@H](NC(=O)[C@@H](NC(=O)[C@H](CC(N)=O)NC(=O)[C@H](CCC(N)=O)NC(=O)[C@H](CC(C)C)NC(=O)[C@H](CC(C)C)NC(=O)[C@H](CCCCN)NC(=O)[C@H](CCCNC(=N)N)NC(=O)[C@H](C)NC(=O)[C@H](CO)NC(=O)[C@H](CC(C)C)NC(=O)[C@H](CCC(N)=O)NC(=O)CNC(=O)[C@H](CC(C)C)NC(=O)[C@@H](NC(=O)[C@H](CCCCN)NC(=O)[C@H](CCCNC(=N)N)NC(=O)[C@H](Cc1ccc(O)cc1)NC(=O)[C@H](CO)NC(=O)[C@H](CC(N)=O)NC(=O)[C@@H](NC(=O)[C@H](Cc1ccccc1)NC(=O)[C@@H](NC(=O)[C@H](C)NC(=O)[C@H](CC(=O)O)NC(=O)[C@H](C)NC(=O)[C@@H](N)Cc1ccc(O)cc1)[C@@H](C)CC)[C@@H](C)O)C(C)C)[C@@H](C)CC)C(=O)N[C@@H](CO)C(=O)N[C@@H](CCCNC(=N)N)C(=O)N[C@@H](CCC(N)=O)C(=O)N[C@@H](CCC(N)=O)C(N)=O [[Asn^25, Nle^27]-hGRF(1-31)--NH2, [Asn^25,Nle^27]-hGRF(1-31)--NH2] (H-YADAIFTNSYRKVLGQLSARKLLQNI[Nle]SRQQ-NH2)	0.12 nM	267%	96 % of hGRF		
CCCC[C@H](NC(=O)[C@@H](NC(=O)[C@H](CC(N)=O)NC(=O)[C@H](CCC(N)=O)NC(=O)[C@H](CC(C)C)NC(=O)[C@H](CC(C)C)NC(=O)[C@H](CCCCN)NC(=O)[C@H](CCCNC(=N)N)NC(=O)[C@H](C)NC(=O)[C@H](CO)NC(=O)[C@H](CC(C)C)NC(=O)[C@H](CCC(N)=O)NC(=O)CNC(=O)[C@H](CC(C)C)NC(=O)[C@@H](NC(=O)[C@H](CCCCN)NC(=O)[C@H](CCCNC(=N)N)NC(=O)[C@H](Cc1ccc(O)cc1)NC(=O)[C@H](CO)NC(=O)[C@H](CC(=O)O)NC(=O)[C@@H](NC(=O)[C@H](Cc1ccccc1)NC(=O)[C@@H](NC(=O)[C@H](C)NC(=O)[C@H](CC(=O)O)NC(=O)[C@H](C)NC(=O)[C@@H](N)Cc1ccc(O)cc1)[C@@H](C)CC)[C@@H](C)O)C(C)C)[C@@H](C)CC)C(=O)N[C@@H](CO)C(=O)N[C@@H](CCCNC(=N)N)C(=O)N[C@@H](CCC(N)=O)C(=O)N[C@@H](CCC(N)=O)C(N)=O [[Asp^8, Asn^25, Nle^27]-hGRF(1-31)--NH2, [Asp^8,Asn^25,Nle^27]-hGRF(1-31)--NH2] (H-YADAIFTDSYRKVLGQLSARKLLQNI[Nle]SRQQ-NH2)	0.42 nM	76%	87 % of hGRF		
CCCC[C@H](NC(=O)[C@@H](NC(=O)[C@H](CC(=O)O)NC(=O)[C@H](CCC(N)=O)NC(=O)[C@H](CC(C)C)NC(=O)[C@H](CC(C)C)NC(=O)[C@H](CCCCN)NC(=O)[C@H](CCCNC(=N)N)NC(=O)[C@H](C)NC(=O)[C@H](CO)NC(=O)[C@H](CC(C)C)NC(=O)[C@H](CCC(N)=O)NC(=O)CNC(=O)[C@H](CC(C)C)NC(=O)[C@@H](NC(=O)[C@H](CCCCN)NC(=O)[C@H](CCCNC(=N)N)NC(=O)[C@H](Cc1ccc(O)cc1)NC(=O)[C@H](CO)NC(=O)[C@H](CC(=O)O)NC(=O)[C@@H](NC(=O)[C@H](Cc1ccccc1)NC(=O)[C@@H](NC(=O)[C@H](C)NC(=O)[C@H](CC(=O)O)NC(=O)[C@H](C)NC(=O)[C@@H](N)Cc1ccc(O)cc1)[C@@H](C)CC)[C@@H](C)O)C(C)C)[C@@H](C)CC)C(=O)N[C@@H](CO)C(=O)N[C@@H](CCCNC(=N)N)C(=O)N[C@@H](CCC(N)=O)C(=O)N[C@@H](CCC(N)=O)C(N)=O [[Asp^8, Nle^27]-hGRF(1-31)--NH2, [Asp^8,Nle^27]-hGRF(1-31)--NH2] (H-YADAIFTDSYRKVLGQLSARKLLQDI[Nle]SRQQ-NH2)	0.39 nM	82%	109 % of hGRF		
